# Marks after values point to notes of the source that are not given here.
# How the values were obtained:
# PCSK9 protein = PCSK9 protein amount in HepG2 cells by Western blotting; type: cell-based, human; details: 48 hours; for PCSK9 protein amount (Relative value based on value of control taken as 1): 10 μM in culture medium, corrected by β-actin; for PCSK9 protein amount-reducing action in comparison with the control (in words): 10 μM
# Experimental: (§1) Influence of a test compound on amount of PCSK9 protein and amount of LDL receptor was studied by adding the test compound to human hepatoma cell strain, HepG2 cells, and measuring amount of PCSK9 protein and amount of LDL receptor (LDLR) by Western blotting after culture for 48 hours.
# (§2) Specifically, the HepG2 cells were inoculated on a 6-well plate at a density of 5×10^5 cells/well and cultured overnight, and a test compound dissolved in dimethyl sulfoxide (DMSO), or only DMSO was added to the culture medium in a 1/1000-fold amount. The cells were cultured at 37° C. for 48 hours in a CO2 incubator, the culture was added with 100 μL of the RIPA buffer (50 mM Tris-HCl, pH 7.8, 150 mM NaCl, 1% NP-40, 0.5% sodium deoxycholate, 0.1% SDS, proteinase inhibitor) to disrupt the cells, and proteins were extracted. The extracted proteins were centrifuged at 10000×g, the supernatant was collected, and added with an SDS sample buffer (60 mM Tris-HCl, pH 6.8, 2% SDS, 10% glycerol, 3% mercaptoethanol), and the mixture was subjected to separation by SDS-PAGE (SDS-polyacrylamide gel electrophoresis) using 8% acrylamide gel. After completion of the separation, the proteins were fixed on a nitrocellulose membrane by using iBlot Gel Transfer System (Invitrogen), and blocked by using Block Ace (DS Pharma Biomedical, Catalog No. UK-B 80).
# (§3) Detection of the PCSK9 protein, LDLR, and β-actin protein, and measurement of the amounts thereof were performed by labeling the proteins on the membrane using Anti-PCSK9 (Cayman, Catalog No. 1000718), Anti-LDLR (BioVision, Catalog No. 3839-100), and Anti-β-Actin (Sigma, Catalog No. A5316), respectively, as the primary antibody, and Anti-Rabbit IgG-HRP (Sigma, Catalog No. A0545) or Anti-Mouse IgG-HRP (Sigma, Catalog No. A4416) as the secondary antibody, reacting a chemiluminescence reagent (substrate of HRP) with the secondary antibody on the membrane, and then measuring signal intensity using Lumino Image Analyzer LAS-3000 (Fuji Photo Film). The resulting signal intensity wag numprirally evaluated by using image analysis software, Science Lab 2002 Multi Gauge (Fuji Photo Film).
# (§4) The resulting measured values of the PCSK9 protein amount and the LDL receptor amount were corrected between those obtained for the sample added with a test compound and the control sample (sample added with only DMSO) using the β-actin protein amounts as index. The corrected PCSK9 protein amount and LDL receptor amount of the test compound addition sample were represented by relative values based on the PCSK9 protein amount and LDL receptor amount of the control sample, respectively, which were taken as 1.
# LDL receptor (LDLR) = assay: LDL receptor amount in HepG2 cells by Western blotting; type: cell-based, human; details: 48 hours; for LDL receptor amount (Relative value based on value of control taken as 1): 10 μM in culture medium, corrected by β-actin; for LDL receptor amount-increasing action in comparison with the control (in words): 10 μM
# Experimental: as §1, §2, §3, §4
# [1] = test system: human HMG-CoA reductase mRNA; assay: HMG-CoA reductase mRNA expression in HepG2 cells by quantitative real-time PCR; type: cell-based; details: 10 μM, 8 hours; for HMG-CoA reductase mRNA expression amount (Relative value based on average value of control taken as 1): average ± standard error, 3 samples
# Experimental: A test compound was added to the HepG2 cells and the cells were cultured for 8 hours, and then HMG-CoA reductase mRNA expression amount was measured by quantitative real-time PCR.
# Specifically, the HepG2 cells were inoculated on a 24-well plate at a density of 2×10^5 cells/well and cultured overnight, and then a test compound dissolved in dimethyl sulfoxide (DMSO), or only DMSO was added to the culture medium in a 1/1000-fold amount. The cells were cultured at 37° C. for 8 hours in a CO2 incubator, and then added with 500 μL of ISOGEN (NIPPON GENE, Catalog No. 31-02501), and the total RNA was extracted. cDNA was synthesized from the extracted total RNA by using High Capacity cDNA Reverse Transcription Kit (Applied Biosystems, Catalog No. 4368813). Expression amount of human HMG-CoA reductase mRNA was measured by quantitative real-time PCR using a set of the following primers: 5′-[…]-3′ (SEQ ID No:1) and 5′-[…]-3′ (SEQ ID No:2) specific to human HMG-CoA reductase, and Fast SYBR Green Master Mix (Applied Biosystems, Catalog No. 4385614). As the measurement apparatus, 7900HT Fast Realtime PCR System was used.
# The resulting measured values of the HMG-CoA reductase mRNA expression amount were corrected between those obtained for test compound addition samples (3 samples for each compound) and control samples (sample added with only DMSO, 3 samples) using the β-actin mRNA expression amounts as index. The corrected HMG-CoA reductase mRNA expression amount of the test compound addition sample was represented with a relative value (average±standard error) based on average of the HMG-CoA reductase mRNA expression amounts of the control samples, which was taken as 1.
# [2] = test system: LDL cholesterol in the plasma; assay: Blood LDL cholesterol-reducing action in normal hamsters; type: in vivo, male Syrian hamsters; details: for LDL cholesterol-reducing rate: based on control group; for Average LDL cholesterol amount ± standard deviation: plasma 4 hours after final administration, control 50 ± 3.0
# Description: (S)-trans-{4-[({2-[({1-[3,5-Bis(trifluoromethyl)phenyl]ethyl}{5-[2-(methylsulfonyl)ethoxy]pyrimidin-2-yl}amino)methyl]-4-(trifluoromethyl)phenyl}(ethyl)amino)methyl]cyclohexyl}acetic acid ((S)-isomer compound (III), optical purify: >99% ee) was suspended in a 0.5% methylcellulose solution, and orally administered repeatedly to normal hamsters (male Syrian hamsters) once a day over 14 days by using a metal probe. Four hours after the final administration, blood was collected, and plasma was obtained. Lipoproteins in the plasma were analyzed by automatic measurement using an HPLC system based on the post-labeling method according to the method described in J. Lipid. Res., 43, p805-814. Specifically, 15 μL of a plasma sample was diluted 10 times with PBS containing 1 mM EDTA, and 80 μl of the diluted sample was injected into a gel filtration column (Superose 6 column (column size: 10×300 mm), GE Healthcare Bioscience) connected to an HPLC system (liquid feeding unit: Shimadzu LC-20A System, Shimadzu). Separation was performed at a flow rate of 0.5 mL/minute and a column temperature of 40° C. by using PBS containing 1 mM EDTA as a running buffer. A cholesterol-measuring reagent (Cholesterol E-Test Wako, Wako Pure Chemical Industries) was mixed with the eluate from the column at a flow rate of 0.25 mL/minute, and the reaction was performed at 40° C. in a reaction coil (0.5 mm×15 m) with feeding the eluate. Cholesterols in the eluate obtained from the reaction coil were detected at a wavelength of 600 nm. Area ratio of the LDL fraction based on the resulting total peak area of cholesterols was calculated, and the total cholesterol amount measured beforehand by using Cholesterol E-Test Wako was multiplied by the area ratio of the LDL fraction to calculate LDL cholesterol amount.
# Six normal hamsters were used for each of the control group (0.5% methylcellulose solution administration group) and the test compound administration groups (10 mg/kg body weight and 30 mg/kg body weight of (S)-isomer compound (III) administration groups). The hamsters were divided into the groups beforehand on the basis of the total plasma cholesterol value.
# The symbols * and *** in Table 3 means that there were significant differences at a significance level of 5% or less (p<0.05) and a significance level of 0.1% or less (p<0.001), respectively, as determined by a multi-group comparison test (Dunnett's multiple comparison test) performed between the control group and each of the test compound administration groups. Further, the LDL cholesterol amount-reducing rate of the test compound administration group based on the control group was calculated in accordance with the following equation 1 as an LDL cholesterol-reducing rate, and indicated in terms of percentage. LDL cholesterol-reducing rate(%)=[(Average of LDL cholesterol amount of control group−Average of LDL cholesterol amount of compound administration group)/Average of LDL cholesterol amount of control group]×100 (Equation 1)
# human PCSK9 mRNA = assay: PCSK9 mRNA expression in HepG2 cells by quantitative real-time PCR; type: cell-based; details: 10 μM, 24 hours
# Experimental: Specifically, the HepG2 cells were inoculated on a 24-well plate at a density of 2×10^5 cells/well and cultured overnight, and then a test compound dissolved in dimethyl sulfoxide (DMSO), or only DMSO was added to the culture medium in a 1/1000-fold amount. The cells were cultured at 37° C. for 24 hours in a CO2 incubator, and then added with 500 μl of ISOGEN (NIPPON GENE, Catalog No. 31-02501), and the total RNA was extracted. cDNA was synthesized from the extracted total RNA by using High Capacity cDNA Reverse Transcription Kit (Applied Biosystems, Catalog No. 4368813). Expression amount of human PCSK9 mRNA was measured by quantitative real-time PCR using primers specific to human PCSK9 (Kourimate S. et al., J. Biol. Chem., Vol. 283, p9666), and Fast SYBR Green Master Mix (Applied Biosystems, Catalog No. 4385614). As the measurement apparatus, 7900HT Fast Realtime PCR System was used.
# The resulting measured values of the PCSK9 mRNA expression amount were corrected between those obtained for test compound addition samples (3 samples) and control samples (sample added with only DMSO, 3 samples) using the β-actin mRNA expression amounts as index. […]
# [3] = 10 mg/kg orally once a day over 14 days
# [4] = 30 mg/kg orally once a day over 14 days
SMILES,PCSK9 protein amount (Relative value based on value of control taken as 1) (PCSK9 protein),PCSK9 protein amount-reducing action in comparison with the control (in words) (PCSK9 protein),LDL receptor amount (Relative value based on value of control taken as 1) (LDL receptor (LDLR)),LDL receptor amount-increasing action in comparison with the control (in words) (LDL receptor (LDLR)),Effect on HMG-CoA reductase mRNA expression amount in comparison with the control (in words) [1],HMG-CoA reductase mRNA expression amount (Relative value based on average value of control taken as 1) [1],"LDL cholesterol-reducing rate [2, 3] [%]","Average LDL cholesterol amount ± standard deviation [2, 3]","LDL cholesterol-reducing rate [2, 4] [%]","Average LDL cholesterol amount ± standard deviation [2, 4]","Blood LDL cholesterol-reducing action (in words) ([2]; normal hamsters, 10 and 30 mg/kg orally, 14 days)",Effect on expression amount of PCSK9 mRNA in comparison with the control (in words) (human PCSK9 mRNA),"PCSK9 mRNA expression amount (Relative value based on average value of control taken as 1) (human PCSK9 mRNA; average ± standard error, 3 samples)"
"CCN(C[C@H]1CC[C@H](CC(=O)O)CC1)c1ccc(C(F)(F)F)cc1CN(c1ncc(OCCS(C)(=O)=O)cn1)[C@H](C)c1cc(C(F)(F)F)cc(C(F)(F)F)c1 [(R)-Isomer compound (II), (R)-trans-{4-[({2-[({1-[3,5-Bis(trifluoromethyl)phenyl]ethyl}{5-[2-(methylsulfonyl)ethoxy]pyrimidin-2-yl}amino)methyl]-4-(trifluoromethyl)phenyl}(ethyl)amino)methyl]cyclohexyl}acetic acid]",1.05,almost no such actions,0.93,almost no such actions,–,–,–,–,–,–,–,–,–
"CCN(C[C@H]1CC[C@H](CC(=O)O)CC1)c1ccc(C(F)(F)F)cc1CN(c1ncc(OCCSC)cn1)C(C)c1cc(C(F)(F)F)cc(C(F)(F)F)c1 (relative stereo) [trans-{4-[({2-[({1-[3,5-Bis(trifluoromethyl)phenyl]ethyl}{5-[2-(methylthio)ethoxy]pyrimidin-2-yl}amino)methyl]-4-(trifluoromethyl)phenyl}(ethyl)amino)methyl]cyclohexyl}acetic acid]",–,–,–,–,remarkably reduced,0.25 ± 0.03,–,–,–,–,–,–,–
"CCN(C[C@H]1CC[C@H](CC(=O)O)CC1)c1ccc(C(F)(F)F)cc1CN(c1ncc(OCCS(C)(=O)=O)cn1)C(C)c1cc(C(F)(F)F)cc(C(F)(F)F)c1 (mixture of isomers) [Racemate compound (I), trans-{4-[({2-[({1-[3,5-Bis(trifluoromethyl)phenyl]ethyl}{5-[2-(methylsulfonyl)ethoxy]pyrimidin-2-yl}amino)methyl]-4-(trifluoromethyl)phenyl}(ethyl)amino)methyl]cyclohexyl}acetic acid, reference compound]",0.68,almost no such actions,0.73,almost no such actions,remarkably reduced,0.37 ± 0.02,–,–,–,–,–,–,–
"CCN(C[C@H]1CC[C@H](CC(=O)O)CC1)c1ccc(C(F)(F)F)cc1CN(c1ncc(OCCS(C)(=O)=O)cn1)[C@@H](C)c1cc(C(F)(F)F)cc(C(F)(F)F)c1 [(S)-Isomer compound (III), (S)-trans-{4-[({2-[({1-[3,5-Bis(trifluoromethyl)phenyl]ethyl}{5-[2-(methylsulfonyl)ethoxy]pyrimidin-2-yl}amino)methyl]-4-(trifluoromethyl)phenyl}(ethyl)amino)methyl]cyclohexyl}acetic acid]",0.28,markedly reduced,1.73,remarkably increased,–,–,20.0,40 ± 2.6* mg/dl,38.0,31 ± 2.6*** mg/dl,superior blood LDL cholesterol-reducing action,remarkably reduced,0.18 ± 0.13

# Source: US8906895B2, “Optically active dibenzylamine derivative, and method for preparing thereof” (Kowa Company, Ltd., priority 2010, dated 2014)
